In ChEMBL document CHEMBL4428125, “8-Substituted 1,3-dimethyltetrahydropyrazino[2,1-f]purinediones: Water-soluble adenosine receptor antagonists and monoamine oxidase B inhibitors” (Bioorg Med Chem, 2016):
Converted amounts (≈) assume the structure as drawn.

What was measured:
[1] = biological target: T1, Adenosine receptor A1 (Rattus norvegicus, UniProt P25099); assay: Displacement of [3H]CCPA from A1 receptor in rat brain cortex membranes by liquid scintillation counting method; assay type: cell membranes
T1 sequence (P25099 whole entry): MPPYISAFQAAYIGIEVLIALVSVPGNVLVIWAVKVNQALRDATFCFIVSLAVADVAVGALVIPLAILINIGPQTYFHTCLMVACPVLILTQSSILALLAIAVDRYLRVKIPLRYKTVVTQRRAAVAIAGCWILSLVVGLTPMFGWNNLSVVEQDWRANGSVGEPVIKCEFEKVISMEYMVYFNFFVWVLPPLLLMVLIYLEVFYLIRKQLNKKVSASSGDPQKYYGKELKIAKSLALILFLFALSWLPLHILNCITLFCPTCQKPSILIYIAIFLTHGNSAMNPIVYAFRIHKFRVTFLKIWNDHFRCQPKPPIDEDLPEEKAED

[2] = biological target: T2, Adenosine receptor A1 (Rattus norvegicus) (UniProt P25099); assay: Displacement of [3H]CCPA from A1 receptor in rat brain cortex membranes at 1.5 uM by liquid scintillation counting method; assay type: cell membranes
T2 sequence (whole entry): T1 sequence (P25099 whole entry)

[3] = biological target: Adenosine receptor A2a (Rattus norvegicus, UniProt P30543); assay: Displacement of [3H]MSX from A2A receptor in rat brain striatum membranes measured after 30 mins by liquid scintillation counting method; assay type: cell membranes
Sequence of Adenosine receptor A2a (Rattus norvegicus, UniProt P30543) (P30543 whole entry): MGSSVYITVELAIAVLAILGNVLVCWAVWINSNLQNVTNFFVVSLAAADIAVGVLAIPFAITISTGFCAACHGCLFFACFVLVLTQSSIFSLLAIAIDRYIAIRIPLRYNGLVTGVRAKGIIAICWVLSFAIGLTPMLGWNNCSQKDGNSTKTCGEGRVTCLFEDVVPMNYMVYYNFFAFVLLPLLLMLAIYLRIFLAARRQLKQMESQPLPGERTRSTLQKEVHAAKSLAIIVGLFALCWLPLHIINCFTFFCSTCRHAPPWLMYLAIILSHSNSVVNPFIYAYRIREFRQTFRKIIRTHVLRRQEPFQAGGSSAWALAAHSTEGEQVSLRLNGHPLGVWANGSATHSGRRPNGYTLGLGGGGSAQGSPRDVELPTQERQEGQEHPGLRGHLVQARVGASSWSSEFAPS

[4] = biological target: Adenosine receptor A2a (Rattus norvegicus) (UniProt P30543); assay: Displacement of [3H]MSX from A2A receptor in rat brain striatum membranes at 1 uM measured after 30 mins by liquid scintillation counting method relative to control; assay type: cell membranes
Sequence of Adenosine receptor A2a (Rattus norvegicus) (P30543 whole entry): as above

[5] = biological target: T3, Amine oxidase [flavin-containing] B (Homo sapiens, UniProt P27338); assay: Inhibition of recombinant human MAO-B expressed in baculovirus infected BTI insect cells at 10 uM preincubated for 30 mins followed by addition of p-tyramine as substrate measured over 45 mins by Amplex Red MAO assay relative to control; conditions: 0.75 h
T3 sequence (P27338 whole entry): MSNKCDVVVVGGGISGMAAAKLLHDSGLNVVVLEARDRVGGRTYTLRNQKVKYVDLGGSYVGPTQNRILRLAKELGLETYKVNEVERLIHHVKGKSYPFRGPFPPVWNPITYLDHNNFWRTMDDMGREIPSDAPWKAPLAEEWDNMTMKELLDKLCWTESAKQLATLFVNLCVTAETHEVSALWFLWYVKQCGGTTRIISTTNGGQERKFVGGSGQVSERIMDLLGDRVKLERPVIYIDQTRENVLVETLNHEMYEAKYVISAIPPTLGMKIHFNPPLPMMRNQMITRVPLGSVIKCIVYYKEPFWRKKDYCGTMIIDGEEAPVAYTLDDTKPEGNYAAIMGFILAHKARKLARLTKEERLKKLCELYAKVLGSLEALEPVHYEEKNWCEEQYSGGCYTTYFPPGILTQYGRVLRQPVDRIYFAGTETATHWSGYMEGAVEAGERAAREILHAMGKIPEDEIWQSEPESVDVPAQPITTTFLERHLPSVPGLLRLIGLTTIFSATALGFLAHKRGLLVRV

[6] = biological target: T4, Adenosine receptor A2b (Homo sapiens, UniProt P29275); assay: Displacement of [3H]PSB-603 from human A2B receptor expressed in CHO cell membrane; assay type: cell membranes
T4 sequence (P29275 whole entry): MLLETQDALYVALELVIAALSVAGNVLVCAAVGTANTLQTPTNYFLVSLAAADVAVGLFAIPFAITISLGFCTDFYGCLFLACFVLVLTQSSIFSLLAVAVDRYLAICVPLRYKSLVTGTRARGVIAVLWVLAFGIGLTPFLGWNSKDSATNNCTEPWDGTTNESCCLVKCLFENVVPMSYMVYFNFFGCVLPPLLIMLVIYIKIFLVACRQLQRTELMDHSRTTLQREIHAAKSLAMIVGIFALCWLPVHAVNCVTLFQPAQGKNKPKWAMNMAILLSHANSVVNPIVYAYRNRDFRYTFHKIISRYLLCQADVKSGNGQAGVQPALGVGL

[7] = biological target: T5, Adenosine receptor A3 (Homo sapiens, UniProt P0DMS8); assay: Displacement of [3H]PSB-11 from human A3 receptor expressed in CHO cell membrane by liquid scintillation counting method relative to control; assay type: cell membranes
T5 sequence (P0DMS8 whole entry): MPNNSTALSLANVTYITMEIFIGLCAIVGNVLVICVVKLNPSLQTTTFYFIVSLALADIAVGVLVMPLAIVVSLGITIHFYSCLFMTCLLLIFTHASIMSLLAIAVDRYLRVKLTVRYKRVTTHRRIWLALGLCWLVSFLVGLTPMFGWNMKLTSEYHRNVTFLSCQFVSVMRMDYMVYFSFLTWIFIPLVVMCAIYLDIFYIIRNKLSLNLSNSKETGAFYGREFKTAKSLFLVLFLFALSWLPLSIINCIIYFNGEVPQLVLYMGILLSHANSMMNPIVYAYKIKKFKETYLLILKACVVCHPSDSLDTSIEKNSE

[8] = biological target: T6, Adenosine receptor A3 (Homo sapiens) (UniProt P0DMS8); assay: Displacement of [3H]PSB-11 from human A3 receptor expressed in CHO cell membrane at 10 uM by liquid scintillation counting method relative to control relative to control; assay type: cell membranes
T6 sequence (whole entry): T5 sequence (P0DMS8 whole entry)

[9] = Thermodynamic solubility of the compound at pH 1; assay type: physicochemical; conditions: buffer, read-out: Therm_solubility
[10] = Thermodynamic solubility of the compound at pH 4; assay type: physicochemical; conditions: buffer, read-out: Therm_solubility
[11] = Thermodynamic solubility of the compound at pH 7.4; assay type: physicochemical; conditions: buffer, read-out: Therm_solubility
[12] = biological target: T7, Adenosine receptor A2b (Homo sapiens) (UniProt P29275); assay: Displacement of [3H]PSB-603 from human A2B receptor expressed in CHO cell membrane at 0.3 uM relative to control; assay type: cell membranes
T7 sequence (whole entry): T4 sequence (P29275 whole entry)

[13] = biological target: T8, Adenosine receptor A1 (Homo sapiens, UniProt P30542); assay: Displacement of [3H]CCPA from human A1 receptor expressed in CHO cell membrane by liquid scintillation counting method; assay type: cell membranes
T8 sequence (P30542 whole entry): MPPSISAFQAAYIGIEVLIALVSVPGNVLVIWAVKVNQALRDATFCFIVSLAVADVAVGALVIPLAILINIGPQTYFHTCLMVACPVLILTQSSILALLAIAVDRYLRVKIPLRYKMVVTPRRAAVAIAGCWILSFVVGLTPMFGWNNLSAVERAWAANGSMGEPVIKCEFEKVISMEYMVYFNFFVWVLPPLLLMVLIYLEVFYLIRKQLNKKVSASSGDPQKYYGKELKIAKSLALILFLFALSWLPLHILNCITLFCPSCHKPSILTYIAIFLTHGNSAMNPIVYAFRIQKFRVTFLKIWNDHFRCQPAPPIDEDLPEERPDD

[14] = biological target: Adenosine receptor A2a (Homo sapiens, UniProt P29274); assay: Displacement of [3H]MSX from human A2A receptor measured after 30 mins by liquid scintillation counting method
Sequence of Adenosine receptor A2a (Homo sapiens, UniProt P29274) (P29274 whole entry): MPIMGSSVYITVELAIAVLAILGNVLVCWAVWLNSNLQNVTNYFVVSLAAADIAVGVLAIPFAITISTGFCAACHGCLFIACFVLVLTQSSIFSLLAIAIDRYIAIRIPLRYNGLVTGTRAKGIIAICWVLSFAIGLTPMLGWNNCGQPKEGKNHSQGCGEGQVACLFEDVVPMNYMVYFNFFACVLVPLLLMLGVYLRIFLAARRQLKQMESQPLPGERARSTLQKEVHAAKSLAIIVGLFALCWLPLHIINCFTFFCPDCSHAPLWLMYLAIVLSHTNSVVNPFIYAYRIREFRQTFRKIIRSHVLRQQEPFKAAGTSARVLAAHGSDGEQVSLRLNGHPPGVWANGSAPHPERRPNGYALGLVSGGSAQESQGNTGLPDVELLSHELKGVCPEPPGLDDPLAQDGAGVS

[15] = biological target: T9, Amine oxidase [flavin-containing] A (Homo sapiens, UniProt P21397); assay: Inhibition of recombinant human MAO-A expressed in baculovirus infected BTI insect cells preincubated for 30 mins followed by addition of p-tyramine as substrate measured over 45 mins by Amplex Red MAO assay
T9 sequence (P21397 whole entry): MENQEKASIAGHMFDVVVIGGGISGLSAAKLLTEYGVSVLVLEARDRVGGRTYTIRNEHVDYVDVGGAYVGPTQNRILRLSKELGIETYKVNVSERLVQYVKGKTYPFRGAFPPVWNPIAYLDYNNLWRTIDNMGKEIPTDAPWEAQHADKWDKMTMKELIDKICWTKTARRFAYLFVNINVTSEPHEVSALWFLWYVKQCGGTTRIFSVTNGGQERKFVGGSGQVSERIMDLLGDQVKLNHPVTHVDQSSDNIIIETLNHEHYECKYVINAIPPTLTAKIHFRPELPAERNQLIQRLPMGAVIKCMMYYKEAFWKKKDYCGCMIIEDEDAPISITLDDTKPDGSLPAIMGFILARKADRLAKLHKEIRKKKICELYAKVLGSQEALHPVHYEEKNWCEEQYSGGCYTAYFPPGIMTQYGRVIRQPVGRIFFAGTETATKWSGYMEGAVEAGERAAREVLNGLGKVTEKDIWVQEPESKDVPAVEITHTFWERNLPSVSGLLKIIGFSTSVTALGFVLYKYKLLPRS

[16] = biological target: T9, Amine oxidase [flavin-containing] A; assay: Inhibition of recombinant human MAO-A expressed in baculovirus infected BTI insect cells at 10 uM preincubated for 30 mins followed by addition of p-tyramine as substrate measured over 45 mins by Amplex Red MAO assay relative to control; conditions: 0.75 h
[17] = biological target: T3, Amine oxidase [flavin-containing] B; assay: Inhibition of recombinant human MAO-B expressed in baculovirus infected BTI insect cells preincubated for 30 mins followed by addition of p-tyramine as substrate measured over 45 mins by Amplex Red MAO assay
[18] = biological target: T7, Adenosine receptor A2b (Homo sapiens); assay: Displacement of [3H]PSB-603 from human A2B receptor expressed in CHO cell membrane at 1 uM relative to control; assay type: cell membranes
[19] = biological target: T6, Adenosine receptor A3 (Homo sapiens); assay: Displacement of [3H]PSB-11 from human A3 receptor expressed in CHO cell membrane at 3 uM by liquid scintillation counting method relative to control relative to control; assay type: cell membranes

| SMILES | Ki [1] | Activity [2] | Ki [3] | Activity [4] | inhibition at 10 µM [5] | Ki [6] | Ki [7] | Activity [8] | solubility thermodynamic [9] | solubility thermodynamic [10] | solubility thermodynamic [11] | Activity [12] | Ki [13] | Ki [14] | IC50 [15] | inhibition at 10 µM [16] | IC50 [17] | Activity [18] | Activity [19] |
| --- | --- | --- | --- | --- | --- | --- | --- | --- | --- | --- | --- | --- | --- | --- | --- | --- | --- | --- | --- |
| Cn1c(=O)c2c(nc3n2CCN(CCc2cc(C(F)(F)F)ccc2F)C3)n(C)c1=O | > 1500 nM | 4% | > 1000 nM | 25% | 58% | > 300 nM | > 10000 nM | 14% | 400 µg/mL (≈ 940 µM) | < 0.5 µg/mL | < 0.5 µg/mL | 13% | – | – | – | – | – | – | – |
| Cn1c(=O)c2c(nc3n2CCN(CCCc2cccc(Br)c2)C3)n(C)c1=O | > 1500 nM | 17% | 450 nM | – | 26% | > 1000 nM | > 10000 nM | 35% | 100 µg/mL (≈ 231 µM) | < 0.5 µg/mL | < 0.5 µg/mL | – | 3880 nM | 512 nM | > 10000 nM | 16% | > 10000 nM | 19% | – |
| Cn1c(=O)c2c(nc3n2CCN(CCOc2ccccc2)C3)n(C)c1=O | > 1500 nM | -1% | > 1000 nM | 24% | 16% | > 300 nM | > 10000 nM | 32% | 1100 µg/mL (≈ 3100 µM) | 60 µg/mL (≈ 169 µM) | 20 µg/mL (≈ 56.3 µM) | 4% | – | – | > 10000 nM | 11% | > 10000 nM | – | – |
| Cn1c(=O)c2c(nc3n2CCN(Cc2csc(-c4ccc(Cl)cc4)n2)C3)n(C)c1=O | 76 nM | – | 62 nM | – | 47% | > 1000 nM | > 10000 nM | 43% | – | – | < 0.5 µg/mL | – | 492 nM | 346 nM | > 10000 nM | 3% | – | 17% | – |
| Cn1c(=O)c2c(nc3n2CCN(CCc2ccc4c(c2)OCO4)C3)n(C)c1=O | > 1500 nM | 5% | 6170 nM | – | 24% | > 1000 nM | > 3000 nM | – | 300 µg/mL (≈ 782 µM) | 1 µg/mL (≈ 2.61 µM) | < 0.5 µg/mL | – | – | – | – | – | > 10000 nM | 12% | 9% |
| Cn1c(=O)c2c(nc3n2CCN(Cc2csc(-c4cccc(Cl)c4)n2)C3)n(C)c1=O | 437 nM | – | 160 nM | – | -2% | > 1000 nM | > 10000 nM | 40% | – | – | 2 µg/mL (≈ 4.52 µM) | – | 73 nM | 363 nM | > 10000 nM | -13% | > 10000 nM | 6% | – |
| Cn1c(=O)c2c(nc3n2CCN(C2Cc4ccccc4C2)C3)n(C)c1=O | > 1500 nM | 12% | > 10000 nM | 26% | – | > 1000 nM | > 3000 nM | – | – | – | – | – | – | – | – | – | 7590 nM | 13% | 11% |
